According to PubChem BioAssay (NCI):
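1) Cells in 96-well plates. 2) Compound, 48 h, 5 concentrations. 3) Linear interpolation between surrounding doses. 4) Unreached endpoint = highest concentration. TGI marks complete inhibition of growth.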

How the values were obtained:
Experiment in all cases: NCI tumour cell line growth inhibition, 48 h
[1] = test system: M14 melanoma
[2] = test system: SNB-19 CNS
[3] = test system: HT29 colon
[4] = test system: NCI/ADR-RES ovarian
[5] = test system: BT-549 breast
[6] = test system: NCI-H460 lung
[7] = test system: SNB-75 CNS
[8] = test system: ACHN renal
[9] = test system: EKVX NSCLC
[10] = test system: HCT-116 colon
[11] = test system: UACC-257 melanoma
[12] = test system: SW-620 colon
[13] = test system: MOLT-4 leukemia
[14] = test system: A549 NSCLC
[15] = test system: TK-10 renal
[16] = test system: SK-MEL-5 melanoma
[17] = test system: U251 CNS
[18] = test system: COLO 205 colon
[19] = test system: IGROV1 ovarian
[20] = test system: NCI-H23 lung
[21] = test system: OVCAR-5 ovarian
[22] = test system: 786-0 renal
[23] = test system: OVCAR-8 ovarian
[24] = test system: MDA-N
[25] = test system: HOP-62 NSCLC
[26] = test system: NCI-H226 lung
[27] = test system: DU-145 prostate
[28] = test system: NCI-H522 lung
[29] = test system: SN12C renal
[30] = test system: K-562 leukemia
[31] = test system: T-47D breast
[32] = test system: OVCAR-4 ovarian
[33] = test system: HOP-92 NSCLC
[34] = test system: KM12 colon
[35] = test system: SF-539 CNS
[36] = test system: RXF 393 renal
[37] = test system: HL-60(TB) leukemia
[38] = test system: SK-MEL-28 melanoma
[39] = test system: RPMI-8226 leukemia
[40] = test system: SF-268 CNS
[41] = test system: HS 578T breast
[42] = test system: UACC-62 melanoma
[43] = test system: HCC-2998 colon
[44] = test system: CCRF-CEM leukemia
[45] = test system: PC-3 prostate
[46] = test system: MCF7 breast
[47] = test system: HCT-15 colon
[48] = test system: SK-OV-3 ovarian
[49] = test system: MDA-MB-231 breast
[50] = test system: SF-295 CNS
[51] = test system: MDA-MB-435
[52] = test system: OVCAR-3 ovarian
[53] = test system: MALME-3M melanoma
[54] = test system: LOX IMVI melanoma
[55] = test system: SK-MEL-2 melanoma
[56] = test system: A498 renal
[57] = test system: UO-31 renal

**Q.** For CC(=O)CC1CCC(=O)CCC(=O)OC(CC(C)=O)CCC(=O)CCC(=O)O1 (stereo not given), which TGI [1] is on record?
**A.** > 100 µM

**Q.** And the TGI [2]?
**A.** > 100 µM

**Q.** What about the TGI [3] of the same compound?
**A.** > 100 µM

**Q.** What about the TGI [4] of the same compound?
**A.** > 100 µM

**Q.** And the TGI [5]?
**A.** > 100 µM

**Q.** What about the TGI [6] of the same compound?
**A.** > 100 µM

**Q.** And the TGI [7]?
**A.** > 100 µM

**Q.** What about the TGI [8] of the same compound?
**A.** > 100 µM

**Q.** And the TGI [9]?
**A.** > 100 µM

**Q.** And the TGI [10]?
**A.** > 100 µM

**Q.** What about the TGI [11] of the same compound?
**A.** > 100 µM

**Q.** And the TGI [12]?
**A.** > 100 µM

**Q.** What about the TGI [13] of the same compound?
**A.** > 100 µM

**Q.** And the TGI [14]?
**A.** > 100 µM

**Q.** And the TGI [15]?
**A.** > 100 µM

**Q.** And the TGI [16]?
**A.** > 100 µM

**Q.** What about the TGI [17] of the same compound?
**A.** > 100 µM

**Q.** What about the TGI [18] of the same compound?
**A.** > 100 µM

**Q.** And the TGI [19]?
**A.** > 100 µM

**Q.** What about the TGI [20] of the same compound?
**A.** > 100 µM

**Q.** What about the TGI [21] of the same compound?
**A.** > 100 µM

**Q.** And the TGI [22]?
**A.** > 100 µM

**Q.** And the TGI [23]?
**A.** > 100 µM

**Q.** What about the TGI [24] of the same compound?
**A.** > 100 µM

**Q.** And the TGI [25]?
**A.** > 100 µM

**Q.** And the TGI [26]?
**A.** > 100 µM

**Q.** And the TGI [27]?
**A.** > 100 µM

**Q.** And the TGI [28]?
**A.** > 100 µM

**Q.** What about the TGI [29] of the same compound?
**A.** > 100 µM

**Q.** What about the TGI [30] of the same compound?
**A.** > 100 µM

**Q.** What about the TGI [31] of the same compound?
**A.** > 100 µM

**Q.** What about the TGI [32] of the same compound?
**A.** > 100 µM

**Q.** What about the TGI [33] of the same compound?
**A.** > 100 µM

**Q.** What about the TGI [34] of the same compound?
**A.** > 100 µM

**Q.** What about the TGI [35] of the same compound?
**A.** > 100 µM

**Q.** What about the TGI [36] of the same compound?
**A.** > 100 µM

**Q.** What about the TGI [37] of the same compound?
**A.** > 100 µM

**Q.** And the TGI [38]?
**A.** > 100 µM

**Q.** What about the TGI [39] of the same compound?
**A.** > 100 µM

**Q.** What about the TGI [40] of the same compound?
**A.** > 100 µM

**Q.** And the TGI [41]?
**A.** > 100 µM

**Q.** What about the TGI [42] of the same compound?
**A.** > 100 µM

**Q.** What about the TGI [43] of the same compound?
**A.** > 100 µM

**Q.** And the TGI [44]?
**A.** > 100 µM

**Q.** And the TGI [45]?
**A.** > 100 µM

**Q.** And the TGI [46]?
**A.** > 100 µM

**Q.** And the TGI [47]?
**A.** > 100 µM

**Q.** And the TGI [48]?
**A.** > 100 µM

**Q.** What about the TGI [49] of the same compound?
**A.** > 100 µM

**Q.** What about the TGI [50] of the same compound?
**A.** > 100 µM

**Q.** And the TGI [51]?
**A.** > 100 µM

**Q.** What about the TGI [52] of the same compound?
**A.** > 100 µM

**Q.** What about the TGI [53] of the same compound?
**A.** > 100 µM

**Q.** For OC1OC(c2ccco2)C(F)(F)C(F)(F)C1(F)F (stereo not given), which TGI [1] is on record?
**A.** > 100 µM

**Q.** What about the TGI [2] of the same compound?
**A.** > 100 µM

**Q.** And the TGI [3]?
**A.** > 100 µM

**Q.** What about the TGI [4] of the same compound?
**A.** > 100 µM

**Q.** And the TGI [54]?
**A.** > 100 µM

**Q.** And the TGI [5]?
**A.** > 100 µM

**Q.** What about the TGI [6] of the same compound?
**A.** > 100 µM

**Q.** What about the TGI [8] of the same compound?
**A.** > 100 µM

**Q.** And the TGI [9]?
**A.** > 100 µM

**Q.** What about the TGI [10] of the same compound?
**A.** > 100 µM

**Q.** And the TGI [11]?
**A.** > 100 µM

**Q.** What about the TGI [12] of the same compound?
**A.** > 100 µM

**Q.** What about the TGI [14] of the same compound?
**A.** > 100 µM

**Q.** And the TGI [15]?
**A.** > 100 µM

**Q.** What about the TGI [16] of the same compound?
**A.** 89.1 µM

**Q.** What about the TGI [17] of the same compound?
**A.** > 100 µM

**Q.** And the TGI [18]?
**A.** > 100 µM

**Q.** And the TGI [19]?
**A.** > 100 µM

**Q.** And the TGI [55]?
**A.** > 100 µM

**Q.** What about the TGI [21] of the same compound?
**A.** > 100 µM

**Q.** What about the TGI [22] of the same compound?
**A.** > 100 µM

**Q.** What about the TGI [23] of the same compound?
**A.** > 100 µM

**Q.** What about the TGI [24] of the same compound?
**A.** > 100 µM

**Q.** And the TGI [25]?
**A.** > 100 µM

**Q.** And the TGI [26]?
**A.** > 100 µM

**Q.** And the TGI [27]?
**A.** > 100 µM

**Q.** And the TGI [29]?
**A.** > 100 µM

**Q.** What about the TGI [56] of the same compound?
**A.** > 100 µM

**Q.** What about the TGI [30] of the same compound?
**A.** > 100 µM

**Q.** And the TGI [31]?
**A.** > 100 µM

**Q.** What about the TGI [32] of the same compound?
**A.** > 100 µM

**Q.** What about the TGI [33] of the same compound?
**A.** > 100 µM

**Q.** What about the TGI [57] of the same compound?
**A.** > 100 µM

**Q.** And the TGI [34]?
**A.** > 100 µM

**Q.** And the TGI [35]?
**A.** > 100 µM

**Q.** What about the TGI [36] of the same compound?
**A.** > 100 µM

**Q.** And the TGI [37]?
**A.** > 100 µM

**Q.** What about the TGI [38] of the same compound?
**A.** > 100 µM

**Q.** What about the TGI [39] of the same compound?
**A.** > 100 µM

**Q.** What about the TGI [40] of the same compound?
**A.** > 100 µM

**Q.** And the TGI [41]?
**A.** 76.2 µM

**Q.** What about the TGI [42] of the same compound?
**A.** > 100 µM

**Q.** What about the TGI [44] of the same compound?
**A.** > 100 µM

**Q.** And the TGI [45]?
**A.** > 100 µM

**Q.** What about the TGI [46] of the same compound?
**A.** > 100 µM

**Q.** And the TGI [47]?
**A.** > 100 µM

**Q.** And the TGI [48]?
**A.** > 100 µM

**Q.** What about the TGI [49] of the same compound?
**A.** > 100 µM

**Q.** And the TGI [50]?
**A.** > 100 µM

**Q.** And the TGI [51]?
**A.** > 100 µM

**Q.** And the TGI [52]?
**A.** > 100 µM

**Q.** What about the TGI [53] of the same compound?
**A.** > 100 µM
